# US12180485B2, “Repressible control of gene expression” (TRUSTEES OF BOSTON UNIVERSITY, priority 2020, dated 2024)
# Like-named read-outs stand apart in the source and are kept apart here.
# Tests used:
# [1] = tested on: Cre reporter; assay: Caffeine inducible split Cre (CaffVHH), Cre reporter in transfected cells; type: cell-based
# [2] = target: CID domains; settings: cited from earlier work; for Kd: ligand / CID dimerization domain, read-out: Dissociation constant (Kd); for Reversibility: reversibility of the ligand-induced dimerization / action
# [3] = tested on: mammalian systems; settings: cited from earlier work
# [4] = tested on: mCherry; assay: Drug inhibited knockdown system (Cas13 OFF switch, dNS3/ANR domains), mCherry expression; type: cell-based; settings: split Cas13d linked to dNS3 and ANR domains
# [5] = tested on: mCherry; assay: Split Cas13 (559/560) or WTCas13 driven by inducible promoters (NFkB, CAGA12, AP1), mCherry knockdown; type: cell-based; settings: NFkB promoter with TGFbeta; CAGA12 promoter with TNFalpha; AP1 promoter with PMA
# From the text: FIG. 13A-13E is a series of schematics and graphs showing the coupling of split Cas13 (559/560) expression to inducible promoters responsive to endogenous signals. Inducible promoters responsive to endogenous signals drove split Cas13 expression for the construction of AND logic gate. FIG. 13A is a schematic showing the transfection compositions of endogenous signal-responsive promoters (e.g., “short response elements” and “miniP”) driving split Cas13d's. […] FIG. 13E is a series of bar graphs showing that orthogonality among the 3 inducible promoters tested. In FIG. 13B-13D, the left-right order of the bars for each design is the same as the top-down order of the legend for each bar graph, and “NT-gRNA” is non-target gRNA. In FIG. 13E, the left-right order of the bars is the same as the top-down order of the legend for each bar graph.
# [6] = target: NS3a/danoprevir complex (Hepatitis C virus genotype 1a, UniProt P27958, T1100M/T1173A); settings: cited from earlier work
# [7] = target: grazoprevir/NS3a complex (Hepatitis C virus genotype 1a, UniProt P27958, T1100M/T1173A); settings: cited from earlier work
# [8] = target: asunaprevir-bound NS3a (Hepatitis C virus genotype 1a, UniProt P27958, T1100M/T1173A); settings: cited from earlier work
# [9] = tested on: mCherry; assay: mCherry knockdown by LwaCas13a and PspCas13b, WT and GIB CID split sites; type: cell-based
# From the text: Cas13b was able to facilitate over 70% mCherry knockdown. […] Two additional mCherry-targeting crRNA sequences for LwaCas13a were identified; they both offered moderate mCherry knockdown (around 50% in populations highly expressing Cas13a).
# With the LwaCas13a and PspCas13b specific mCherry-targeting crRNAs, 12 split sites were screened in PspCas13b, and 11 split sites were screened in LwaCas13a sequences.
# Therefore, it is contemplated herein that the knockdown efficiency of split LwaCas13a can be brought up by optimized crRNA design. Moreover, without wishing to be bound by theory, with a more efficient crRNA, GIB-induced knockdown efficiency by splits 397/398, 488/489, 605/606, 786/787, or 826/827 could also be enhanced.
# [10] = tested on: recombinase reporter; assay: Split recombinases (Cre, Flp, PhiC, vCre) with tandem or single CaffVHH, recombinase reporters, caffeine induction; type: cell-based; settings: 48 hours of 100 uM caffeine
# [11] = toxicity in mammalian systems at working concentration
molecule,measurement,setting,value
"Cn1c(=O)c2c(ncn2C)n(C)c1=O [caffeine, reference compound]",caffeine concentration able to turn on Cre activity and generate reporter expression,[1]; 48 hours,0.1 µM
same,caffeine concentration not sufficient to induce recombination,[1]; FIG. 1C,0.01 µM
same,caffeine concentration over which recombination efficiency did not increase significantly,[1]; FIG. 1C,over 50 uM
same,Kd,[2],1200 nM
same,Reversibility,[2],yes
same,Toxicity*,[3]; [11],no
"C=C[C@@H]1C[C@]1(NC(=O)[C@@H]1C[C@@H]2CN1C(=O)[C@H](C(C)(C)C)NC(=O)O[C@@H]1C[C@H]1CCCCCc1nc3ccc(OC)cc3nc1O2)C(=O)NS(=O)(=O)C1CC1.O [Grazoprevir, reference compound]",inhibition of constitutive knockdown activity of the OFF switch,[4],able to inhibit the constitutive knockdown activity
same,Kd,[2],0.02 nM
same,Reversibility,[2],yes
same,Toxicity*,[3]; [11],no
Gibberellin,Kd,[2],1000 nM
same,Reversibility,[2],yes
same,Toxicity*,[3]; [11],yes
CC1=CC(=O)CC(C)(C)[C@@]1(O)/C=C/C(C)=C\C(=O)O [Abscisic acid],Kd,[2],20 nM
same,Reversibility,[2],yes
same,Toxicity*,[3],no
TNFalpha,mCherry knockdown by split Cas13d or WTCas13 expressed from inducible promoter,[5],induced mCherry knockdown
CC(C)(C)OC(=O)N[C@H]1CCCCC/C=C\[C@@H]2C[C@@]2(C(=O)NS(=O)(=O)C2CC2)NC(=O)[C@@H]2C[C@@H](OC(=O)N3Cc4cccc(F)c4C3)CN2C1=O [Danoprevir],inhibition of constitutive knockdown activity of the OFF switch,[4],able to inhibit the constitutive knockdown activity
"G3: reader domain, SEQ ID NO: 168 (protein) DIEKLCKKAEEEAKEAQEKADELRQRHPDSQAAEDAEDLANEAEAAVLAACSLAQEHPNADIAKLCIKAASEAAEAASKAAELAQRHPDSQAARDAIKLASQAARAVILAIMLAAENPNADIAKLCIKAASEAAEAASKAAELAQRHPDSQAARDAIKLASQAAEAVERAIWLAAENPNADIAKKCIKAASEAAEEASKAAEEAQRHPDSQKARDEIKEASQKAEEVKERCKS",binding of NS3 in the presence of danoprevir,[6],no binding
same,binding of NS3 in the presence of grazoprevir,[7],moderate binding
same,binding of NS3 in the presence of asunaprevir,[8],some binding
single CaffVHH: single CaffVHH version of split Cre 270/271 (protein) VHH: EVQLQASGGGLVQAGGSLRLSCTASGRTGTIYSMAWFRQAPGKEREFLATVGWSSGITYYMDSVKGRFTISRDNAKNSAYLQMNSLKPEDTAVYYCTATRAYSVGYDYWGQGTQVTVSH,caffeine concentration achieving maximum recombination efficiency,"[1]; dose response, split Cre 270/271",500 µM
"LwaCas13a: Cas13a from Leptotrichia wadei (protein, listed as Leptotrichia wadei) MKVTKVDGISHKKYIEEGKLVKSTSEENRTSERLSELLSIRLDIYIKNPDNASEEENRIRRENLKKFFSNKVLHLKDSVLYLKNRKEKNAVQDKNYSEEDISEYDLKNKNSFSVLKKILLNEDVNSEELEIFRKDVEAKLNKINSLKYSFEENKANYQKINENNVEKVGGKSKRNIIYDYYRESAKRNDYINNVQEAFDKLYKKEDIEKLFFLIENSKKHEKYKIREYYHKIIGRKNDKENFAKIIYEEIQNVNNIKELIEKIPDMSELKKSQVFYKYYLDKEELNDKNIKYAFCHFVEIEMSQLLKNYVYKRLSNISNDKIKRIFEYQNLKKLIENKLLNKLDTYVRNCGKYNYYLQVGEIATSDFIARNRQNEAFLRNIIGVSSVAYFSLRNILETENENGITGRMRGKTVKNNKGEEKYVSGEVDKIYNENKQNEVKENLKMFYSYDFNMDNKNEIEDFFANIDEAISSIRHGIVHFNLELEGKDIFAFKNIAPSEISKKMFQNEINEKKLKLKIFKQLNSANVFNYYEKDVIIKYLKNTKFNFVNKNIPFVPSFTKLYNKIEDLRNTLKFFWSVPKDKEEKDAQIYLLKNIYYGEFLNKFVKNSKVFFKITNEVIKINKQRNQKTGHYKYQKFENIEKTVPVEYLAIIQSREMINNQDKEEKNTYIDFIQQIFLKGFIDYLNKNNLKYIESNNNNDNNDIFSKIKIKKDNKEKYDKILKNYEKHNRNKEIPHEINEFVREIKLGKILKYTENLNMFYLILKLLNHKELTNLKGSLEKYQSANKEETFSDELELINLLNLDNNRVTEDFELEANEIGKFLDFNENKIKDRKELKKFDTNKIYFDGENIIKHRAFYNIKKYGMLNLLEKIADKAKYKISLKELKEYSNKKNEIEKNYTMQQNLHRKYARPKKDEKFNDEDYKEYEKAIGNIQKYTHLKNKVEFNELNLLQGLLLKILHRLVGYTSIWERDLRFRLKGEFPENHYIEEIFNFDNSKNVKYKSGQIVEKYINFYKELYKDNVEKRSIYSDKKVKKLKQEKKDLYIRNYIAHFNYIPHAEISLLEVLENLRKLLSYDRKLKNAIMKSIVDILKEYGFVATFKIGADKKIEIQTLESEKIVHLKNLKKKKLMTDRNSEELCELVKVMFEYKALE",mCherry knockdown compared to no crRNA control group,[9]; position-matched LwaCas13a crRNA,did not achieve mCh knockdown
same,mCherry knockdown,"[9]; two additional mCherry-targeting crRNA sequences, populations highly expressing Cas13a",around 50%
"D5: reader domain, SEQ ID NO: 166 (protein) SSDEEEARELIERAKEAAERAQEAAERTGDPRVRELARELKRLAQEAAEEVKRDPSSSDVNEALKLIVEAIEAAVDALEAAERTGDPEVRELARELVRLAVEAAEEVQRNPSSSDVNEALLTIVIAIEAAVNALEAAERTGDPEVRELARELVRLAVEAAEEVQRNPSSREVNIALWKIVLAIQEAVESLREAEESGDPEKREKARERVREAVERAEEVQRDPSGWLNH",binding of NS3 in the presence of danoprevir,[6],moderate binding
same,binding of NS3 in the presence of grazoprevir,[7],moderate binding
same,binding of NS3 in the presence of asunaprevir,[8],some binding
"DNCR1: danoprevir/NS3 complex reader, SEQ ID NO: 167 (protein) SSDEEEARELIERAKEAAERAQEAAERTGDPRVRELARELKRLAQEAAEEVKRDPSSSDVNEALKLIVEAIEAAVDALEAAERTGDPEVRELARELVRLAVEAAEEVQRNPSSSDVNEALLSIVIAIEAAVHALEAAERTGDPEVRELARELVRLAVEAAEEVQRNPSSREVEHALMKIVLAIYEAEESLREAEESGDPEKREKARERVREAVERAEEVQRDPSGWLNH",binding of NS3 in the presence of danoprevir,[6],high binding
same,binding of NS3 in the presence of grazoprevir,[7],minimal binding
same,binding of NS3 in the presence of asunaprevir,[8],minimal binding
"Flp split 374/375: split Flp, aa 1-374 / 375-423 of SEQ ID NO: 60, with tandem or single CaffVHH (protein, listed as Saccharomyces cerevisiae, split with 375-423; CaffVHH fusions) MSQFDILCKTPPKVLVRQFVERFERPSGEKIASCAAELTYLCWMITHNGTAIKRATFMSYNTIISNSLSFDIVNKSLQFKYKTQKATILEASLKKLIPAWEFTIIPYNGQKHQSDITDIVSSLQLQFESSEEADKGNSHSKKMLKALLSEGESIWEITEKILNSFEYTSRFTKTKTLYQFLFLATFINCGRFSDIKNVDPKSFKLVQNKYLGVIIQCLVTETKTSVSRHIYFFSARGRIDPLVYLDEFLRNSEPVLKRVNRTGNSSSNKQEYQLLKDNLVRSYNKALKKNAPYPIFAIKNGPKSHIGRHLMTSFLSMKGLTELTNVVGNWSDKRASAVARTTYTHQITAIPDHYFALVSRYYAYDPISKEMIAL","induced recombination, tandem CaffVHH compared to single CaffVHH",[10],"comparable induced recombination, if not better"
